Like-named read-outs stand apart in the source and are kept apart here.

One may read the inhibition as the change of the read-out against control, counted positive when it falls.

In assay [1] the test system is E. coli clinical strain UTI89. Put plainly: Biofilm formation of E. coli clinical strain UTI89 in 96 well plates (crystal violet). Type of assay: cell-based. To be noted: Escherichia coli, 24 h, one day, read-out: inhibition of biofilm formation of the UTI89 strain as compared to the controls; for inhibition at 32 µg/mL: 32 ug/ml; for inhibition at 8 µg/mL: 8 ug/ml; for inhibition at 16 µg/mL: 16 ug/ml. Here is the method:
Biofilm inhibition experiments were conducted using an assay adapted from the reported protocol described in Pratt and Kolter, 1998, Molecular Microbiology, 30: 285-293; Li et al., 2001, J. Bacteriol., 183: 897-908. E. coli clinical strain UTI89 was grown in LB in 96 well plates at room temperature for one day without shaking. To quantify the biofilm mass, the suspension culture was poured out and the biofilm was washed three times with water. The biofilm was stained with 0.1% crystal violet for 20 minutes. The plates were then washed three times with water. Then 95% ethanol was added to dissolve the dye at the bottom and on the wall and the OD reading at 540 nm was measured to quantify the total biofilm mass. Test compounds were added with the inoculation and biofilm mass was measured after one day as described above appropriate amounts of 100% ethanol were added to each sample to eliminate the effect of solvent. Each condition had 4 to 8 replicates on each plate and was performed over multiple days.

The subject of the next assay is Pseudomonas aeruginosa. Put plainly: Microtiter plate biofilm formation assay (crystal violet), Pseudomonas aeruginosa. Type of assay: cell-based. To be noted: read-out: % Biofilm Inhibition of Pseudomonas Aeruginosa. As for the experimental part:
In this example, a concentrated solution of each compound tested was loaded separately into three separate wells of a polystyrene microtiter plate. In addition, each assay included triplicate wells correlating to negative and positive controls. […] Next, 150 μl of sterile media was added to each well (LB media with 0.2% glucose)—followed by 50 μl of the appropriate bacterial inoculum. Thus, each well contained a final volume of approximately 200 μl (not including the volume of the concentrated inhibitor). The final concentration of each biofilm inhibitor tested in the assay was 10 μg/ml. The microtiter plates were then placed on a shaker for approximately 20 to 24 hours at room temperature. After the incubation period, the microtiter plate was removed from the shaker, rinsed, and stained. During the rinsing step, the test compound, media, and bacterial inoculum solution was drained from the plate, approximately 300 μL of 0.1M phosphate buffered saline (PBS) was added to each well, which was subsequently drained from the plate. The rinsing step removed any suspended cells from the assay. An 0.1% crystal violet stain was added to each well for approximately 20 minutes. Next, the crystal violet solution was drained from the microtiter plate. The plate was rinsed with PBS as described above four (4) times to remove any excess stain from the plate. Following the PBS rinsing steps, the plate was eluted with 250 μL/well of ethanol, which improved the detection of the stain. The plate was immediately analyzed spectrophotometrically at 540 nm using a microtiter plate reader.
The average O.D. for each test compound was compared to the average O.D. of the negative control (the positive control was employed to verify proper assay function).

Assay [2] deals with methicillin-resistant Staphylococcus aureus. Conditions: cited from earlier work.
Another assay has as its system Escherichia coli. Put plainly: Microtiter plate biofilm formation assay (crystal violet), Escherichia coli. Type of assay: cell-based. To be noted: read-out: % Biofilm Inhibition of E. coli.
The next assay relates to S. mutans. Conditions: data of the '911 patent; cited from earlier work.
Another assay concerns S. salivaris. Conditions: data of the '911 patent; cited from earlier work.
The test system of a further assay is S. aureus. To be noted: data of the '911 patent; cited from earlier work.
The next assay deals with E. coli. To be noted: data of the '911 patent; cited from earlier work.
The test system of another assay is P. aeruginosa. To be noted: data of the '911 patent; cited from earlier work.
The subject of another assay is bacterial growth. Kind of assay: Bacterial growth inhibition studies. Type of assay: cell-based.
Setting [3] is: 10 μg/ml, 20 to 24 hours at room temperature, O.D. 540 nm vs negative control.
Where [4] appears, read: 10 μg/ml, same microtiter assay.

As for `C[C@@H]1CC[C@]2(C(=O)O)CC[C@]3(C)C(=CCC4[C@]5(C)C(CC[C@]43C)[C@@](C)(CO)[C@H](O)[C@H](O)[C@H]5O)C2[C@H]1C` (stereo partly drawn) [Compound 458, 1β,2α,3α,24-tetrahydroxy-12-ursen-28-oic acid], in assay [1], the inhibition at 32 µg/mL was approximately 45%. Consider `CC1(C)CC[C@]2(C(=O)O)CCC3(C)C(=CCC4C5(C)C[C@@H](O)[C@H](O)C(C)(C)C5CCC43C)[C@@H]2C1` (some centres unmarked) [Compound 107, 2-hydroxyoleanic acid], for which, in the assay with Pseudomonas aeruginosa, the inhibition at 10 µg/mL was determined as 46%. For the compound `CO[C@H]1C[C@@]2(C)C(CC[C@]3(C)C2CC=C2C4[C@@H](C)[C@H](C)CCC4(C(=O)O)CC[C@]23C)C(C)(C)[C@@H]1O` (stereo partly drawn) [Compound 410, 2β-methoxy-3α-hydroxy-12-ursen-28-oic acid], in assay [1], the inhibition at 32 µg/mL was approximately 38%. `CO[C@H]1/C=C/O[C@@]2(C)Oc3c(C)c(O)c4c(O)c(c(/C=N/N5CCN(C)CC5)c(O)c4c3C2=O)NC(=O)/C(C)=C\C=C\[C@H](C)[C@H](O)[C@@H](C)[C@@H](O)[C@@H](C)[C@H](OC(C)=O)[C@@H]1C` [rifampin]: the “Eradication of MRSA in a biofilm” value in assay [2] (biofilm, urinary catheters) is listed as “unable to eradicate”. For the same compound, the “Activity against MRSA planktonic, or suspended cells” value in [2] (planktonic cells) was “effective”. As to `CC1(C)CC[C@]2(C(=O)O)CC[C@]3(C)C(=CC[C@@H]4[C@@]5(C)CC[C@H](O)C(C)(C)[C@@H]5CC[C@]43C)[C@@H]2C1` [Compound 225, Oleanolic Acid], the inhibition at 10 µg/mL in the assay on Pseudomonas aeruginosa (setting [3]) and in the assay on Escherichia coli (setting [4]) was 35% in each case. For the same compound, in the assay with S. mutans, the “Growth inhibition of S. mutans” value is on record as “incomplete inhibition”. Besides, in the assay on S. salivaris, the “Growth inhibition of S. salivaris” value is recorded as “incomplete inhibition”. Moreover, the “Growth inhibition of S. aureus” value in the assay with S. aureus is “failed to inhibit”. In addition, the “Growth inhibition of E. coli” value in the assay with E. coli was “failed to inhibit”. The “Growth inhibition of P. aeruginosa” value in the assay on P. aeruginosa is listed as “failed to inhibit”. Turning to `C[C@H]1[C@H](CO)CC[C@]2(C(=O)O)CC[C@]3(C)C(=CCC4[C@@]5(C)CC[C@H](O)C(C)(C)C5CC[C@]43C)[C@H]12` (some centres unmarked) [Compound 99, 30-hydroxyursolic acid], in the assay with Pseudomonas aeruginosa (setting [3]), the inhibition at 10 µg/mL stood at 30%. In the case of `C[C@@H]1CCC2(C(=O)O)CC[C@]3(C)C(=CCC4[C@@]5(C)C[C@@H](O)[C@H](O)[C@@](C)(CO)C5CC[C@]43C)C2[C@H]1C` (some centres unmarked) [Compound 255, Asiatic Acid], the inhibition at 10 µg/mL in the assay with Escherichia coli (setting [4]) was 75%. The direct anti-bacterial activity entry in the assay with bacterial growth is recorded as “do not display direct anti-bacterial activity”. With `C[C@@H]1CC[C@]2(C(=O)O)CCC3(C)C(=CCC4C5(C)C[C@@H](O)[C@H](O)C(C)(C)C5CCC43C)C2[C@H]1C` (stereo partly drawn) [Compound 108, 2α,3β-dihydroxy-12-ursen-28-oic acid], the inhibition at 10 µg/mL was found to be 52% in the assay on Pseudomonas aeruginosa (setting [3]) and 74% in the assay on Escherichia coli (setting [4]). Further, the inhibition at 20 µg/mL in [1] (20 ug/ml) was approximately 85%. Regarding `C[C@@H]1CC[C@]2(C(=O)O)CC[C@]3(C)C(=CCC4[C@@]5(C)C[C@@H](O)[C@@H](O)[C@](C)(CO)C5CC[C@]43C)C2[C@H]1C` (stereo partly drawn) [Compound 457, 2α,3α,24-trihydroxy-12-ursen-28-oic acid], in assay [1], the inhibition at 8 µg/mL was approximately 50%, the inhibition at 16 µg/mL is approximately 53% and the inhibition at 32 µg/mL is approximately 80%. With `C[C@@H]1CC[C@]2(C(=O)O)CC[C@]3(C)C(=CCC4[C@@]5(C)CC[C@H](OC(=O)OC(C)(C)C)C(C)(C)C5CC[C@]43C)C2[C@H]1C` (stereo partly drawn) [3β-O-tert-butyloxycarbonyl-ursolic acid], the inhibition at 32 µg/mL in assay [1] is approximately 46%. Regarding `CC1CCC2(C(=O)O)CCC3(C)C(=CCC4C5(C)CC(O)C(O)C(C)(C)C5CCC43C)C2C1(C)O` (centres unmarked) [Compound 192, Euscaphic Acid], in the assay on Pseudomonas aeruginosa (setting [3]), the inhibition at 10 µg/mL was 32%.

Turning to `C[C@H]1[C@H](C)CC[C@]2(C(=O)O)CC[C@]3(C)C(=CC[C@@H]4[C@@]5(C)CC[C@H](O)C(C)(C)[C@@H]5CC[C@]43C)[C@H]12` [Compound 110, Ursolic Acid], the inhibition at 10 µg/mL with Escherichia coli (setting [4]) amounted to 80%. In the assay with S. mutans, the “Growth inhibition of S. mutans” value was “completely inhibited”. Also, the “Growth inhibition of S. salivaris” value in the assay with S. salivaris was “completely inhibited”. Besides, the “Growth inhibition of S. aureus” value in the assay on S. aureus is recorded as “failed to inhibit”. For the same compound, in the assay with E. coli, the “Growth inhibition of E. coli” value is recorded as “failed to inhibit”. Besides, in the assay with P. aeruginosa, the “Growth inhibition of P. aeruginosa” value is reported as “failed to inhibit”. For `C[C@@H]1[C@H]2C3=CCC4[C@@]5(C)CC[C@H](O)C(C)(C)C5CC[C@@]4(C)[C@]3(C)CC[C@@]2(C(=O)O)CC[C@]1(C)O` (some centres unmarked) [Compound 195, 20B-hydroxyursolic acid], the inhibition at 10 µg/mL in the assay with Pseudomonas aeruginosa (setting [3]) came to 25%. As to `C[C@@H]1CC[C@]2(C(=O)O)CCC3(C)C(=CCC4C5(C)C[C@H](O)[C@@H](O)C(C)(C)C5CCC43C)C2[C@H]1C` (stereo partly drawn) [Compound 431, 2β,3α-dihydroxy-12-ursen-28-oic acid], in assay [1], the inhibition at 32 µg/mL was approximately 62%. Take `C[C@@H]1[C@H]2C3=CC[C@@H]4[C@@]5(C)CC[C@H](OC(=O)/C=C\c6ccc(O)cc6)C(C)(C)[C@@H]5CC[C@@]4(C)[C@]3(C)CC[C@@]2(C(=O)O)CC[C@]1(C)O` (relative stereo) [Compound 188, 3-[4-Hydroxycinnamoyl(cis-)], 20-hydroxy-ursolic acid]: in the assay with Pseudomonas aeruginosa (setting [3]), the inhibition at 10 µg/mL came out at 62%. `CC1(C)CC[C@@]2(C(=O)O)C(O)C[C@]3(C)C(=CCC4[C@@]5(C)CC[C@H](O)[C@@](C)(CO)C5CC[C@]43C)C2C1` (some centres unmarked) [Compound 323, Caulophyllogenin]: in the assay on Escherichia coli (setting [4]), the inhibition at 10 µg/mL worked out at 35%. In the case of `CC1(C)CC[C@]2(C(=O)O)[C@H](O)C[C@]3(C)C(=CC[C@@H]4[C@@]5(C)CC[C@H](O)C(C)(C)[C@@H]5CC[C@]43C)[C@@H]2C1` [Compound 455, 3β,16α-dihydroxyolean-12-en-28-oic acid], in assay [1], the inhibition at 8 µg/mL is approximately 27%, the inhibition at 16 µg/mL was approximately 50% and the inhibition at 32 µg/mL is approximately 80%. Consider `C[C@H]1[C@H](C)CC[C@]2(C(=O)O)CC[C@]3(C)C(=CCC4[C@@]5(C)C[C@@H](O)[C@H](OC(=O)/C=C/c6ccc(O)cc6)C(C)(C)C5CC[C@]43C)[C@H]12` (stereo partly drawn) [Compound 189, 3-[4-hydroxycinnamoyl(trans-)]-2-hydroxyursolic acid], for which the inhibition at 10 µg/mL in the assay on Pseudomonas aeruginosa (setting [3]) was determined as 35%.

As for `C=C1CCC2(C(=O)O)CCC3(C)C(=CCC4C5(C)CCC(O)C(C)(C)C5CCC43C)C2C1C` (centres unmarked) [Compound 430, 3-hydroxy-12,20(30) ursadien-28-oic acid], the inhibition at 10 µg/mL in the assay with Escherichia coli turned out to be 60%. Turning to `C[C@@H]1CC[C@]2(C(=O)O)CC[C@]3(C)C(=CCC4[C@@]5(C)C[C@@H](O)[C@H](O)C(C)(C)C5CC[C@]43C)[C@@H]2[C@]1(C)O` (some centres unmarked) [Compound 203, Tormentic Acid], in the assay on Pseudomonas aeruginosa (setting [3]), the inhibition at 10 µg/mL came out at 43%. `C[C@H]1[C@H](C)CC[C@]2(C(=O)O)CC[C@]3(C)C(=CC[C@@H]4[C@@]5(C)C[C@@H](O)[C@H](O)[C@@](C)(CO)[C@@H]5[C@H](O)C[C@]43C)[C@H]12` [Compound 314, Madecassic Acid]: in the assay with bacterial growth, the direct anti-bacterial activity entry is recorded as “do not display direct anti-bacterial activity”. As to `CO[C@H]1C[C@@]2(C)C(CC[C@]3(C)C2CC=C2C4[C@@H](C)[C@H](C)CC[C@]4(C(=O)O)CC[C@]23C)C(C)(C)[C@@H]1OC(=O)/C=C/c1ccccc1` (stereo partly drawn) [2β-methoxy-3α-cinnamoyl-12-ursen-28-oic acid], the inhibition at 32 µg/mL in [1] was approximately 40%.

The values above are taken from patent US7612045B2, “Compounds, compositions and methods for controlling biofilms and bacterial infections” (Sequoia Sciences, Inc., priority 2005, dated 2009).
